Source: paper PMC4301837, “Aldosterone synthase inhibition: cardiorenal protection in animal disease models and translation of hormonal effects to human subjects” (Journal of Translational Medicine, 2014)
Like-named read-outs stand apart in the source and are kept apart here. Marks after values point to notes of the source that are not given here.

Tests used:
[1] = test system: dTG rats overexpressing human renin and angiotensinogen; assay type: in vivo; conditions: dTG rats, LCI699 3–100 mg/kg/day
[2] = test system: dTG rats overexpressing human renin and angiotensinogen; test: Survival study in young dTG rats; assay type: in vivo, rat
healthy male volunteers [3] = test: Human safety and tolerability; assay type: in vivo
[4] = human, 0.5–3 mg once daily oral
healthy male volunteers [5] = test system: healthy male volunteers
human CYP11B2 = test system: human CYP11B2; parameters: method as in PMID 24899257; conditions: recombinant hamster fibroblasts expressing human CYP11B1 and CYP11B2; read-out: IC50, inhibition of aldosterone synthesis; cited from earlier work
in vivo = conditions: male, cynomolgus monkey, plasma, po
in vitro [6] = conditions: monkey, plasma
in vitro [7] = conditions: human, plasma
[8] = dogs, ref D. Rigel, personal communication, cited from earlier work
ACTH-stimulated cortisol = conditions: rhesus monkeys, cited from earlier work
[9] = test system: patients with primary aldosteronism; conditions: 14 patients, 0.5 mg and 1 mg twice daily, 4 weeks; cited from earlier work
[10] = test system: patients with Cushing’s disease; conditions: 12 patients, 2–50 mg twice daily, cited from earlier work
[11] = molecular target: recombinant rat aldosterone synthase (CYP11B2) (Rattus norvegicus, UniProt P30099); test: biochemical
[12] = molecular target: 11β-hydroxylase (CYP11B1), rat adrenal homogenate (Rattus norvegicus, UniProt P15393); test: biochemical
Sequence of 11β-hydroxylase (CYP11B1), rat adrenal homogenate (P15393 25-499): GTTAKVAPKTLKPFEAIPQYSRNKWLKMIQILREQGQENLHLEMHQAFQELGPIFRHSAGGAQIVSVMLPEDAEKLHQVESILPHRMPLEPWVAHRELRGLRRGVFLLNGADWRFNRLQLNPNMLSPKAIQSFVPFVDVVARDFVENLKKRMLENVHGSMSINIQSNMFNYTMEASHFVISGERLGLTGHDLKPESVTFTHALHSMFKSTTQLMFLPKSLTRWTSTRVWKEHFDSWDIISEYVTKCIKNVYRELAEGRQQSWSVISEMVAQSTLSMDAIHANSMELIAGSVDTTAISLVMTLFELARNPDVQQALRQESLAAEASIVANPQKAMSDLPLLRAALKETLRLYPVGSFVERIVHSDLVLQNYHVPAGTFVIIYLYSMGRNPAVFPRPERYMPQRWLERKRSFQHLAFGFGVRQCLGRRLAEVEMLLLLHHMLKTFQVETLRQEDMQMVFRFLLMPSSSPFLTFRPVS

[13] = molecular target: aldosterone synthase (CYP11B2), monkey adrenal homogenate (Macaca fascicularis, UniProt A0A2K5UPL9); test: biochemical
[14] = test system: ACTH-stimulated aldosterone and corticosterone synthesis; test: animal or person; conditions: Rattus norvegicus; for ED50: po
[15] = test system: ACTH-stimulated plasma aldosterone and cortisol; test: animal or person; conditions: Macaca fascicularis
healthy male volunteers [16] = test: Human pharmacodynamics, multiple-dose phase; conditions: LCI699 0.5 mg once daily; ANCOVA mean

## N#Cc1ccc([C@H]2CCc3cncn32)c(F)c1 [LCI699]
[1]
  effect on urinary corticosterone excretion: reduced
[1]; eplerenone 30 mg/kg
  effect on LV fractional shortening: dose-dependently increased
  effect on myocardial cell size: normalized
[1]; eplerenone 30 mg/kg/day
  effect on BUN levels: dose-dependently normalized
  effect on mean arterial pressure: neither LCI699 nor eplerenone normalized arterial pressure
  effect on serum potassium: corrected serum potassium in a dose-dependent manner
  effect on urinary albumin excretion: dose-dependently normalized
  effect on urinary aldosterone excretion: reduced
  effect on urine output: dose-dependently normalized
[1]; eplerenone 30 mg/kg, data not shown
  effect on LV weight: reduced
[1]; data not shown
  effect on water intake: dose-dependently normalized
[2]; young dTG rats without established cardiorenal disease, P < 0.01
  doses at which survival was significantly prolonged: […]
[2]; young dTG rats, dose–median survival curves
  maximum median survival time: […]
Healthy male volunteers [3]; LCI699 0.5 mg, multiple-dose phase
  subjects with plasma sodium levels at or below 135 mmol/L: two
Healthy male volunteers [3]; LCI699 3 mg, multiple-dose
  subjects with pre-specified markers of hypoaldosteronism (mild hyponatremia, postural tachycardia, decreased body weight), discontinued: three
Healthy male volunteers [3]; LCI699 3 mg, multiple-dose phase
  subjects with plasma sodium levels at or below 135 mmol/L: four
Healthy male volunteers [3]; healthy subjects, single doses up to 200 mg, multiple doses
  tolerability: well tolerated
Healthy male volunteers [3]; multiple-dose phase, LCI699 10 mg
  adverse events considered severe (abnormal ACTH-stimulation test): only one adverse event
Healthy male volunteers [3]; single or multiple doses
  changes in supine systolic or diastolic blood pressure or heart rate compared with placebo: no consistent changes
[4]
  Tmax: […]
Healthy male volunteers [5]; at the 10 mg single dose, no further reduction up to 200 mg
  plateau of maximal inhibition of plasma aldosterone: approximately 80%
Healthy male volunteers [5]; single dose 100 mg
  increase in 11-deoxycortisol: 942%
Healthy male volunteers [5]; single dose 200 mg
  increase in 11-deoxycortisol: […]
Healthy male volunteers [5]; single dose 200 mg, 24 h post-dose, P = 0.029 vs placebo
  decrease in plasma cortisol: 19%
Healthy male volunteers [5]; single doses 3–100 mg
  effect on plasma cortisol: did not significantly alter
Healthy male volunteers [5]; single doses of 30, 100 or 200 mg
  reductions in 24-h urinary cortisol: […]
Human CYP11B2
  IC50: […]
In vivo
  Tmax: […]
  half-life: […]
In vitro [6]
  fraction unbound: 0.734
In vitro [7]
  fraction unbound: 0.734
[8]; 1 mg/kg oral dose
  oral bioavailability: 96%
[8]
  half-life: […]
ACTH-stimulated cortisol; 3 mg/kg i.v.
  effect on ACTH-stimulated cortisol: reduced ACTH-stimulated cortisol
ACTH-stimulated cortisol; i.v. 0.003–1 mg/kg
  effect on ACTH-stimulated cortisol: no effect
[9]
  effect on plasma and urinary aldosterone levels: effectively reduced
  mean decrease in ambulatory systolic blood pressure: 4 mmHg
[10]; 70 days
  patients with urinary free cortisol below upper limit of normal: 11 patients
[10]
  tolerability: well tolerated
[11]
  IC50: […]
[12]
  IC50: 3.05 µM
[13]
  IC50: […]
[14]; read-out: ED50 for inhibiting ACTH-stimulated aldosterone
  ED50: 1.1 mg/kg
[14]; read-out: ED50 for inhibiting ACTH-stimulated corticosterone
  ED50: 73 mg/kg
[14]; read-out: EC50 for inhibiting ACTH-stimulated aldosterone
  EC50: 0.771 µM
[14]; read-out: EC50 for inhibiting ACTH-stimulated corticosterone
  EC50: […]
[15]; po, read-out: ED50 for inhibition of ACTH-stimulated plasma aldosterone
  ED50: […]
[15]; read-out: EC50 for inhibition of ACTH-stimulated plasma aldosterone
  EC50: […]
Healthy male volunteers [16]
  Plasma potassium, Δ Day2 vs baseline (Day −1): […]
  Plasma potassium, Δ Day7 vs baseline (Day −1): […]
  Plasma potassium, Δ Day14 vs Day 7: […]
  Plasma sodium, Δ Day2 vs baseline (Day −1): […]
